Laboratory results from ChEMBL document CHEMBL1201862, “PubChem BioAssay data set” (2004).
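1) Cells in 96-well plates. 2) Compound, 48 h, 5 concentrations. 3) Linear interpolation between surrounding doses. 4) Unreached endpoint = highest concentration. At the GI50, growth is halved.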 Activity calls are given as the source filed them. Rule as the data show it: active = GI50 up to about 1.1 µM and inactive = higher.

Experiments:
Assay in all cases: DTP human tumour cell line panel, 48 h
XF498 = test system: XF498
TK-10 = test system: TK-10
HCT-15 = test system: HCT-15
SN12C = test system: SN12C
IGROV-1 = test system: IGROV-1
NCI-H460 = test system: NCI-H460
DMS-273 = test system: DMS-273
DMS-114 = test system: DMS-114
K562 = test system: K562
CAKI-1 = test system: CAKI-1
SNB-75 = test system: SNB-75
EKVX = test system: EKVX
HOP-62 = test system: HOP-62
HL-60 = test system: HL-60
SK-MEL-2 = test system: SK-MEL-2
UO-31 = test system: UO-31
M19-MEL = test system: M19-MEL
U-251 = test system: U-251
MOLT-4 = test system: MOLT-4
LXFL 529 = test system: LXFL 529
SF-539 = test system: SF-539
UACC-257 = test system: UACC-257
HOP-18 = test system: HOP-18
A549 = test system: A549
ACHN = test system: ACHN
SK-MEL-5 = test system: SK-MEL-5
KM-20L2 = test system: KM-20L2
RPMI-8226 = test system: RPMI-8226
NCI-H23 = test system: NCI-H23
KM12 = test system: KM12
HOP-92 = test system: HOP-92
SNB-19 = test system: SNB-19
DLD-1 = test system: DLD-1
A498 = test system: A498
HT-29 = test system: HT-29
Malme-3M = test system: Malme-3M
NCI-H226 = test system: NCI-H226
SW-620 = test system: SW-620
SNB-78 = test system: SNB-78
HCC 2998 = test system: HCC 2998
SK-OV-3 = test system: SK-OV-3
RXF 631 = test system: RXF 631
OVCAR-3 = test system: OVCAR-3
OVCAR-4 = test system: OVCAR-4
COLO 205 = test system: COLO 205
SK-MEL-28 = test system: SK-MEL-28
OVCAR-5 = test system: OVCAR-5
CCRF-CEM = test system: CCRF-CEM
SF-268 = test system: SF-268
786-0 = test system: 786-0
UACC-62 = test system: UACC-62
OVCAR-8 = test system: OVCAR-8
LOX IMVI = test system: LOX IMVI
M14 = test system: M14
SF-295 = test system: SF-295
RXF 393 = test system: RXF 393
HCT-116 = test system: HCT-116
SR = test system: SR
NCI-H522 = test system: NCI-H522

Measured: GI50

COc1ccc(C(=O)C(C(=O)C(=O)Nc2nc3ccc(OC)cc3s2)c2ccc(OC)cc2)cc1 (configuration not stated)
> 100 µM: HCT-15
inactive: XF498 > 100 µM | TK-10 > 100 µM | SN12C > 100 µM | IGROV-1 > 100 µM | NCI-H460 > 100 µM | DMS-273 > 100 µM | DMS-114 90.2 µM | K562 > 100 µM | CAKI-1 > 100 µM | SNB-75 26.5 µM | EKVX > 100 µM | HOP-62 > 100 µM | HL-60 75.2 µM | SK-MEL-2 > 100 µM | UO-31 89.5 µM | M19-MEL > 100 µM | U-251 > 100 µM | MOLT-4 > 100 µM | LXFL 529 > 100 µM | SF-539 > 100 µM | UACC-257 63.2 µM | HOP-18 90.6 µM | A549 > 100 µM | ACHN > 100 µM | SK-MEL-5 55.2 µM | KM-20L2 > 100 µM | RPMI-8226 > 100 µM | NCI-H23 > 100 µM | KM12 > 100 µM | HOP-92 > 100 µM | SNB-19 > 100 µM | DLD-1 > 100 µM | A498 > 100 µM | HT-29 > 100 µM | Malme-3M > 100 µM | NCI-H226 > 100 µM | SW-620 > 100 µM | SNB-78 > 100 µM | HCC 2998 > 100 µM | SK-OV-3 > 100 µM | RXF 631 > 100 µM | OVCAR-3 > 100 µM | OVCAR-4 > 100 µM | COLO 205 > 100 µM | SK-MEL-28 > 100 µM | OVCAR-5 > 100 µM | CCRF-CEM > 100 µM | SF-268 > 100 µM | 786-0 > 100 µM | UACC-62 > 100 µM | OVCAR-8 > 100 µM | LOX IMVI > 100 µM | M14 > 100 µM | SF-295 > 100 µM

Cc1c(C(=O)C/C(=N/NC(=O)CC#N)C(N)=O)[n+]([O-])c2ccccc2[n+]1[O-]
25.9 µM: HCT-15
inactive: XF498 > 100 µM | TK-10 > 100 µM | SN12C 30.2 µM | RXF 393 > 100 µM | IGROV-1 20.5 µM | NCI-H460 38.4 µM | DMS-273 42 µM | DMS-114 23.8 µM | K562 52.1 µM | CAKI-1 > 100 µM | SNB-75 > 100 µM | EKVX > 100 µM | HOP-62 > 100 µM | HL-60 17.7 µM | SK-MEL-2 > 100 µM | UO-31 > 100 µM | M19-MEL 21.8 µM | U-251 35.7 µM | MOLT-4 35.6 µM | LXFL 529 74.1 µM | SF-539 37.8 µM | UACC-257 35.9 µM | HOP-18 > 100 µM | A549 > 100 µM | HCT-116 28.1 µM | ACHN 54 µM | SK-MEL-5 40.6 µM | KM-20L2 45.2 µM | RPMI-8226 33.9 µM | NCI-H23 83.6 µM | KM12 28 µM | HOP-92 > 100 µM | SNB-19 > 100 µM | DLD-1 29.1 µM | A498 > 100 µM | HT-29 78 µM | Malme-3M 32.3 µM | NCI-H226 > 100 µM | SW-620 17.7 µM | SNB-78 88.3 µM | HCC 2998 39.5 µM | SK-OV-3 > 100 µM | RXF 631 87.3 µM | SR 46.1 µM | OVCAR-3 22.9 µM | OVCAR-4 32.7 µM | COLO 205 34.6 µM | SK-MEL-28 > 100 µM | NCI-H522 19.8 µM | OVCAR-5 > 100 µM | CCRF-CEM 35.1 µM | SF-268 34.3 µM | 786-0 > 100 µM | UACC-62 33 µM | OVCAR-8 34.2 µM | LOX IMVI 34.3 µM | M14 34.5 µM | SF-295 > 100 µM

CC(=O)OCC1=C(C(=O)O)C(c2ccc3c(c2)OCO3)c2cc3c(cc2O1)OCO3 (configuration not stated)
inactive: XF498 > 100 µM | TK-10 > 100 µM | SN12C > 100 µM | RXF 393 > 100 µM | IGROV-1 > 100 µM | NCI-H460 > 100 µM | DMS-273 > 100 µM | DMS-114 > 100 µM | K562 > 100 µM | CAKI-1 > 100 µM | SNB-75 53.8 µM | EKVX > 100 µM | HOP-62 > 100 µM | HL-60 > 100 µM | UO-31 > 100 µM | M19-MEL > 100 µM | U-251 > 100 µM | MOLT-4 > 100 µM | SF-539 > 100 µM | UACC-257 > 100 µM | HOP-18 > 100 µM | A549 > 100 µM | HCT-116 > 100 µM | ACHN > 100 µM | SK-MEL-5 > 100 µM | KM-20L2 > 100 µM | RPMI-8226 > 100 µM | NCI-H23 > 100 µM | HOP-92 70.1 µM | SNB-19 > 100 µM | DLD-1 > 100 µM | HT-29 > 100 µM | Malme-3M > 100 µM | SW-620 > 100 µM | SNB-78 > 100 µM | SK-OV-3 > 100 µM | RXF 631 > 100 µM | OVCAR-3 > 100 µM | OVCAR-4 > 100 µM | COLO 205 > 100 µM | SK-MEL-28 > 100 µM | CCRF-CEM > 100 µM | UACC-62 > 100 µM | OVCAR-8 > 100 µM | LOX IMVI > 100 µM | M14 > 100 µM | SF-295 > 100 µM
> 100 µM: HCT-15
